Consider nine compounds from US20180305332A1, “Bispiperidinyl Derivatives as Liver X Receptor Beta Agonists, Compositions, and Their Use” (Merck Sharp & Dohme Corp., priority 2015, published 2018).

Assay [1] addresses T1, GST tagged LXRbeta LBD (ligand binding domain) (Homo sapiens, UniProt P55055).
T1 construct: purchased Invitrogen pv4658.pps
T1 sequence (P55055 222-460 limits assumed): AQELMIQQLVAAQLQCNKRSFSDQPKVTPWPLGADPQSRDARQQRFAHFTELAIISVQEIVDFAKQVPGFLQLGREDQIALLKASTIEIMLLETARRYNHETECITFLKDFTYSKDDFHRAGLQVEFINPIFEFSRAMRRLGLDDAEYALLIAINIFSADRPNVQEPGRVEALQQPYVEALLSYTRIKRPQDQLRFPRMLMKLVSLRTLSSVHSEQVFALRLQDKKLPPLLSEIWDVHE
Nature of the assay: LanthaScreen TR-FRET Liver X Receptor Coactivator Assay, LXR beta-LBD. Format: biochemical. To be noted: relative to reference T0901317; for EC50: Inflection Point (potency), co-activator recruitment, read-out: LXR beta IP; for Emax: activity at max dose (efficacy), read-out: LXR beta act @ max dose (%). In outline:
(§1)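 Coactivator-recruitment TR-FRET format: GST-LBD, fluorescein-labelled coactivator peptide, Tb-conjugated anti-GST antibody, incubated at RT. Potency and efficacy scaled to T0901317.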
For orientation: TR-FRET usually uses a lanthanide donor and a delayed reading to cut background.

The target in assay [2] is T2, GST tagged LXRalpha LBD (ligand binding domain) (Homo sapiens, UniProt Q13133).
T2 construct: purchased Invitrogen pv4655
T2 sequence (Q13133 209-447 limits assumed): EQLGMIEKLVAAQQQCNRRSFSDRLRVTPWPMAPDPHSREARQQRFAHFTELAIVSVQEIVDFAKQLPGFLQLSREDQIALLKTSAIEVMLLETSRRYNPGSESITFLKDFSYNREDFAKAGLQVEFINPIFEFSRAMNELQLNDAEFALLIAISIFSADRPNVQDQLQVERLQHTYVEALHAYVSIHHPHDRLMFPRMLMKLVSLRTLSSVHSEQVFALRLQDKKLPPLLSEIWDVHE
Nature of the assay: LanthaScreen TR-FRET Liver X Receptor Coactivator Assay, LXR alpha-LBD. Format: biochemical. To be noted: relative to reference T0901317; for EC50 / LXR alpha IP (nM): Inflection Point (potency), co-activator recruitment; for EC50: read-out: LXR alpha IP; for Emax: activity at max dose (efficacy), read-out: LXR alpha act @ max dose (%). The method, boiled down:
as §1

As for `Cc1ccc(F)c(C(=O)N2CCC(C3CCN(c4ccc(C(=O)N(C)C)c(Cl)c4)CC3)CC2)c1F` [Example A-38, 2-chloro-4-{1′-[(2,6-difluoro-3-methylphenyl)carbonyl]-4,4′-bipiperidin-1-yl}-N,N-dimethylbenzamide], the values for the EC50 in assay [1] and in assay [2] were 164 nM and 3450 nM, respectively. In addition, the values for the Emax in assay [1] and in assay [2] were 85% and 22%, respectively.
Turning to `CN(C)C(=O)c1ccc(N2CCC(C3CCN(C(=O)C4(c5ccccc5)CC4)CC3)CC2)cc1Cl` [Example A-39, 2-chloro-N,N-dimethyl-4-{1′-[(1-phenylcyclopropyl)carbonyl]-4,4′-bipiperidin-1-yl}benzamide], in assay [1], the EC50 amounted to 140 nM and the Emax turned out to be 101%. Moreover, in assay [2], the EC50 came out at 5510 nM and the Emax came out at 32%.
For `CN(C)C(=O)c1ccc(N2CCC(C3CCN(C(=O)C4(c5ccccc5)CCCC4)CC3)CC2)cc1Cl` [Example A-40, 2-chloro-N,N-dimethyl-4-{1′-[(1-phenylcyclopentyl)carbonyl]-4,4′-bipiperidin-1-yl}benzamide] the same measures were 37 nM, 113%, 940 nM and 41%.
As to `CN(C)C(=O)c1ccc(N2CCC(C3CCN(C(=O)C(C)(C)C(F)(F)F)CC3)CC2)cc1Cl` [Example A-41, 2-chloro-N,N-dimethyl-4-[1′-(3,3,3-trifluoro-2,2-dimethylpropanoyl)-4,4′-bipiperidin-1-yl]benzamide], in assay [1], the EC50 worked out at 84 nM and the Emax was found to be 112%. Besides, in assay [2], the EC50 was 3390 nM and the Emax was found to be 71%.
Turning to `CN(C)C(=O)c1ccc(N2CCC(C3CCN(C(=O)C(C)(C)c4ccc(Cl)cc4)CC3)CC2)cc1Cl` [Example A-44, 2-chloro-4-{1′-[2-(4-chlorophenyl)-2-methylpropanoyl]-4,4′-bipiperidin-1-yl}-N,N-dimethylbenzamide], in assay [1], the EC50 amounted to 143 nM and the Emax came out at 95%. Besides, in assay [2], the EC50 is 1980 nM and the Emax stood at 22%.
The corresponding values for `CN(C)C(=O)c1ccc(N2CCC(C3CCN(C(=O)C4(c5ccccc5F)CCCC4)CC3)CC2)cc1Cl` [Example A-45, 2-chloro-4-(1′-{[1-(2-fluorophenyl)cyclopentyl]carbonyl}-4,4′-bipiperidin-1-yl)-N,N-dimethylbenzamide] are 11 nM, 108%, 577 nM and 53%.
For `COc1ccc(C2(C(=O)N3CCC(C4CCN(c5ccc(C(=O)N(C)C)c(Cl)c5)CC4)CC3)CCCC2)cc1` [Example A-46, 2-chloro-4-(1′-{[1-(4-methoxyphenyl)cyclopentyl]carbonyl}-4,4′-bipiperidin-1-yl)-N,N-dimethylbenzamide], in assay [1], the EC50 was 187 nM and the Emax was 34%. Also, in assay [2], the “LXR alpha IP (nM)” value is recorded as “NO IP” and the Emax is 0%.
Turning to `CN(C)C(=O)c1ccc(N2CCC(C3CCN(C(=O)C4(c5ccc(Cl)cc5)CCC4)CC3)CC2)cc1Cl` [Example A-47, 2-chloro-4-(1′-{[1-(4-chlorophenyl)cyclobutyl]carbonyl}-4,4′-bipiperidin-1-yl)-N,N-dimethylbenzamide], in assay [1], the EC50 stood at 178 nM and the Emax worked out at 78%. Besides, in assay [2], the “LXR alpha IP (nM)” value is listed as “NO IP” and the Emax was determined as 4%.
The corresponding values for `COc1ccc(C2(C(=O)N3CCC(C4CCN(c5ccc(C(=O)N(C)C)c(Cl)c5)CC4)CC3)CC2)cc1` [Example A-48, 2-chloro-4-(1′-{[1-(4-methoxyphenyl)cyclopropyl]carbonyl}-4,4′-bipiperidin-1-yl)-N,N-dimethylbenzamide] are 289 nM, 69%, “NO IP” and 0%.
